Data: patent publication US20080051401A1, “2,4,6-Trisubstituted Pyrimidines as Phosphotidylinositol (Pi) 3-Kinase Inhibitors and Their Use in the Treatment of Cancer” (priority 2004, published 2008)

Legend:
[1] = test system: MDA-MB-468 human breast adenocarcinoma cell line; assay: In vitro MDA-MB-468 human breast adenocarcinoma proliferation assay, Test (c); type: cell-based; conditions: BrdU incorporation, 48 hours incubation, read-out: IC50, inhibition of MDA-MB-468 cell growth
From the text: (c) In Vitro MDA-MB-468 Human Breast Adenocarcinoma Proliferation Assay
This assay determines the ability of test compounds to inhibit cell proliferation as assessed using Cellomics Arrayscan technology. A MDA-MB-468 human breast adenocarcinoma cell line (LGC Promochem, Catalogue No. HTB-132) was routinely maintained as described in Biological Assay (b) hereinbefore.
For the proliferation assay, the cells were detached from the culture flask using Accutase and seeded into the inner 60 wells of a black Packard 96 well plate at a density of 8000 cells per well in 100 μl of complete growth media. The outer wells contained 100 μl of sterile PBS. The cells were incubated overnight at 37° C. with 5% CO2 to allow them to adhere.
On day 2, the cells were treated with test compounds and incubated for 48 hours at 37° C. with 5% CO2. […]
BrdU incorporation was detected by incubation for 1 hour at ambient temperature with mouse anti-BrdU antibody (50 μl; Caltag, Burlingame, Calif., US; Catalogue No. MD5200) that was diluted 1:40 in PBS containing 1% BSA and 0.05% Tween-20. […] Subsequently, PBS (100 μl) was added to each well and the plates were analysed using a Cellomics array scan to assess total cell number and number of BrdU positive cells.
Fluorescence dose response data obtained with each compound were analysed and the degree of inhibition of MDA-MB-468 cell growth was expressed as an IC50 value.

p110α Type Ia human PI3K = biological target: T1, p110α Type Ia human PI3K (Homo sapiens, UniProt P42336); assay: In vitro enzyme assay (AlphaScreen), Test (a); type: biochemical; conditions: recombinant enzyme, PI(4,5)P2 substrate, ATP 4 μM, read-out: IC50 versus p110α Type Ia human PI3K
T1 construct: full length DNA of each of the p110α, p110β and p110δ Type Ia human PI3K p110 isoforms; 6-His; made in house
From the text: (a) In Vitro Enzyme Assay
The assay used AlphaScreen technology (Gray et al., Analytical Biochemistry, 2003, 313: 234-245) to determine the ability of test compounds to inhibit phosphorylation by recombinant Type I PI3K enzymes of the lipid PI(4,5)P2.
DNA fragments encoding human PI3K catalytic and regulatory subunits were isolated from cDNA libraries using standard molecular biology and PCR cloning techniques. The selected DNA fragments were used to generate baculovirus expression vectors. In particular, full length DNA of each of the p110α, p110β and p110δ Type Ia human PI3K p110 isoforms (EMBL Accession Nos. HSU79143, S67334, Y10055 for p110α, p110β and p110δ respectively) were sub-cloned into a pDEST10 vector (Invitrogen Limited, Fountain drive, Paisley, UK). The vector is a Gateway-adapted version of Fastbac1 containing a 6-His epitope tag. A truncated form of Type Ib human PI3K p110γ isoform corresponding to amino acid residues 144-1102 (EMBL Accession No. X8336A) and the full length human p85α regulatory subunit (EMBL Accession No. HSP13KIN) were also sub-cloned into pFastBac1 vector containing a 6-His epitope tag. The Type Ia p110 constructs were co-expressed with the p85α regulatory subunit. Following expression in the baculovirus system using standard baculovirus expression techniques, expressed proteins were purified using the His epitope tag using standard purification techniques.
DNA corresponding to amino acids 263 to 380 of human Grp1 PH domain was isolated from a cDNA library using standard molecular biology and PCR cloning techniques. […]
Biotinylated-DiC8-PI(3,4,5)P3 (50 nM; Cell Signals Inc., Catalogue No. 107), recombinant purified GST-Grp1 PH protein (2.5 nM) and AlphaScreen Anti-GST donor and acceptor beads (100 ng; Packard Bioscience Limited, Station Road, Pangbourne, Berkshire, UK, Catalogue No. 6760603M) were added and the assay plates were left for about 5 to 20 hours at ambient temperature in the dark. The resultant signals arising from laser light excitation at 680 nm were read using a Packard AlphaQuest instrument. […]

[2] = test system: phosphorylation of Serine 473 in Akt in MDA-MB-468 human breast adenocarcinoma cell line; assay: In vitro phospho-Ser473 Akt assay, Test (b); type: cell-based; conditions: MDA-MB-468 cells, 2 hours incubation, read-out: IC50, inhibition of phosphorylation of Serine 473 in Akt
Method: (b) In Vitro Phospho-Ser473 Akt Assay
This assay determines the ability of test compounds to inhibit phosphorylation of Serine 473 in Akt as assessed using Acumen Explorer technology (Acumen Bioscience Limited), a plate reader that can be used to rapidly quantitate features of images generated by laser-scanning.
A MDA-MB-468 human breast adenocarcinoma cell line (LGC Promochem, Teddington, Middlesex, UK, Catalogue No. HTB-132) was routinely maintained at 37° C. with 5% CO2 up to a confluency of 70-90% in Dulbecco's modified Eagle's growth medium (DMEM; Invitrogen Limited, Paisley, UK Catalogue No. 41966-029) containing 10% heat-inactivated foetal calf serum (FCS; Sigma, Poole, Dorset, UK, Catalogue No. F0392) and 1% L-glutamine (Gibco, Catalogue No. 25030-024).
For the assay, the cells were detached from the culture flask using ‘Accutase’ (Innovative Cell Technologies Inc., San Diego, Calif., USA; Catalogue No. AT104) using standard tissue culture methods and resuspended in media to give 1.7×10^5 cells per ml. Aliquots (90 μl) were seeded into each of the inner 60 wells of a black Packard 96 well plate (PerkinElmer, Boston, Mass., USA; Catalogue No. 6005182) to give a density of ˜15000 cells per well. Aliquots (90 μl) of culture media were placed in the outer wells to prevent edge effects. The cells were incubated overnight at 37° C. with 5% CO2 to allow them to adhere.
On day 2, the cells were treated with test compounds and incubated for 2 hours at 37° C. with 5% CO2. Test compounds were prepared as 10mM stock solutions in DMSO and serially diluted as required with growth media to give a range of concentrations that were 10-fold the required final test concentrations. Aliquots (10 μl) of each compound dilution were placed in a well (in triplicate) to give the final required concentrations. […]
All subsequent aspiration and wash steps were carried out using a Tecan 96 well plate washer (aspiration speed 10 mm/sec). […] An aliquot of PBS (50 μl) was added to each well and the plates were sealed with black plate sealers and the fluorescence signal was detected and analysed. […]

T1 sequence (P42336 whole entry, canonical isoform): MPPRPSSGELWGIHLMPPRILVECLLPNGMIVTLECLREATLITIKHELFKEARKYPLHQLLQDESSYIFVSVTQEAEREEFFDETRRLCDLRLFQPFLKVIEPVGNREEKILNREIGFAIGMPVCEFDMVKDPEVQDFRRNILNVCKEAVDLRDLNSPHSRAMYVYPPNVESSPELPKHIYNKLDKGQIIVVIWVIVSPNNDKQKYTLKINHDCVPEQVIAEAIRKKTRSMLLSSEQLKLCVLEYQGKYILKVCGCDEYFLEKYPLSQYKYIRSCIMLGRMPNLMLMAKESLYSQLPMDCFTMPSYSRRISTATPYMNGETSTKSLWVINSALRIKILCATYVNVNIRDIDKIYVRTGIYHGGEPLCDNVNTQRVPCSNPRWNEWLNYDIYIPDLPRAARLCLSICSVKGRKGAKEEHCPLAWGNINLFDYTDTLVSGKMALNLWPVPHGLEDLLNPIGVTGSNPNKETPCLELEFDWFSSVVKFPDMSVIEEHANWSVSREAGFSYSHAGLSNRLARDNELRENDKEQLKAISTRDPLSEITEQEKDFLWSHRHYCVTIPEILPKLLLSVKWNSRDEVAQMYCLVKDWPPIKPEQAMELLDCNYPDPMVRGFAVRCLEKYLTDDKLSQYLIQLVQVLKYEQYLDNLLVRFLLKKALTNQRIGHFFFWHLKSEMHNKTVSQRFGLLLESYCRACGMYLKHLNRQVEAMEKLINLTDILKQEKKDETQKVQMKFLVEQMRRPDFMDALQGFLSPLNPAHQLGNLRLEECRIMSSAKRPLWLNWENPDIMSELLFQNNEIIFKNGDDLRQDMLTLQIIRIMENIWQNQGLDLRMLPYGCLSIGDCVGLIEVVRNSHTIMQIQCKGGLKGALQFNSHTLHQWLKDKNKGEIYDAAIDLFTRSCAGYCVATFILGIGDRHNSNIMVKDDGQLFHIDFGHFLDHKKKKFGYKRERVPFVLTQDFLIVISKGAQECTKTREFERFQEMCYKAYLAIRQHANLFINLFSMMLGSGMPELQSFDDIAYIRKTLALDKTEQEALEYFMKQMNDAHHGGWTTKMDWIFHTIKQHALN
T1 sequence (P27986 whole entry partner, canonical isoform): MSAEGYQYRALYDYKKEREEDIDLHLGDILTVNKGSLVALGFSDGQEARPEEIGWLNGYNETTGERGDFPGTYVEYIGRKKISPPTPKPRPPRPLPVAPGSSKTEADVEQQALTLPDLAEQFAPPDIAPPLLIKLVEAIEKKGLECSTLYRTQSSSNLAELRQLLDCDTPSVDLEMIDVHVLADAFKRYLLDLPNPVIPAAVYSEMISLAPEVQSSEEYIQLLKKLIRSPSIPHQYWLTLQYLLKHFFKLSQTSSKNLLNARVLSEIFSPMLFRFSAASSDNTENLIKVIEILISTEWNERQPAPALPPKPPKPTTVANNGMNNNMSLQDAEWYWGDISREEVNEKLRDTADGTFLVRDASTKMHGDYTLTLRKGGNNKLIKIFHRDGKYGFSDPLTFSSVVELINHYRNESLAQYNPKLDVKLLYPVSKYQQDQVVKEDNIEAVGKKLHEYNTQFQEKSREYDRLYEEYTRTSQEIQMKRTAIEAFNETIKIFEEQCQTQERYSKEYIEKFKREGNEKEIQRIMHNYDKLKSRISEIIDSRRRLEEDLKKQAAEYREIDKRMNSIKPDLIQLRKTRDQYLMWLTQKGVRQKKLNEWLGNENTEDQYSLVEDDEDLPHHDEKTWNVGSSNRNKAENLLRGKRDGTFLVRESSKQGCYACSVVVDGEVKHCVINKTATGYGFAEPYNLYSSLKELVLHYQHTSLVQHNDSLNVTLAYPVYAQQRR

| Compound | IC50 [1] | IC50 (p110α Type Ia human PI3K) | IC50 [2] |
| --- | --- | --- | --- |
| O=C(Nc1cccc(-c2cc(N3CCOCC3)nc(-c3cccc(CO)c3)n2)c1)C1CCNCC1 [Example 1, 2-(3-hydroxymethylphenyl)-6-morpholino-4-(3-piperidin-4-ylcarbonylaminophenyl)pyrimidine] | ~8 µM | ~0.1 µM | ~5 µM |
| O=C(Nc1cccc(-c2cc(N3CCOCC3)nc(-c3cccc(O)c3)n2)c1)C1CCCNC1 (stereo not shown) [Example 6, 2-(3-hydroxyphenyl)-6-morpholino-4-(3-piperidin-3-ylcarbonylaminophenyl)pyrimidine] |  | ~0.1 µM | ~0.3 µM |
| O=C(Nc1cccc(-c2cc(N3CCOCC3)nc(-c3cccc(CO)c3)n2)c1)N1CCNCC1 [Example 10, 2-(3-hydroxymethylphenyl)-6-morpholino-4-(3-piperazin-1-ylcarbonylaminophenyl)pyrimidine] |  | ~0.3 µM | ~0.5 µM |
